System: HIV-1 LAI
Assay: microbe, parasite or virus in culture
Conditions: for EC50: Human immunodeficiency virus 1, MT2, 120 h; for Combination Indices at % HIV Inhibition (Confidence Interval) 50%: 50% HIV inhibition; for Combination Indices at % HIV Inhibition (Confidence Interval) 50% / Combination Indices at % HIV Inhibition (Confidence Interval) 75% / Combination Indices at % HIV Inhibition (Confidence Interval) 90%: 95% CI in parenthesis; for Combination Indices at % HIV Inhibition (Confidence Interval) 75%: 75% HIV inhibition; for Combination Indices at % HIV Inhibition (Confidence Interval) 90%: 90% HIV inhibition; for Overall Result: two-drug combination with Compound 1, all ratios and effect levels, MT-2/HIV-1 LAI, RT assay
Description: Virus and cell lines. The T-cell lines, MT-2 and PM-1 were obtained through the AIDS Research and Reference Reagent Program, NIAID, and were contributed by Dr. D. Richman and Dr. R. Gallo, respectively. Both cell lines were cultured in RPMI 1640 medium supplemented with 10% fetal bovine serum, 2 mM L-glutamine and sub-cultured twice a week. The LAI strain of HIV-1 was obtained from the Fred Hutchinson Cancer Research Center, and the Bal strain was from NIH. Both virus stocks were amplified and titered in MT-2 cells (LAI) and PM-1 cells (Bal) using a virus infectivity assay.
Drug Susceptibility and Cytotoxicity Assays. For drug susceptibility assays, MT-2 cells were infected with HIV-1 LAI (or PM-1 cells with HIV-1 Bal) at an MOI of 0.005, and seeded into 96-well microtiter plates (0.1×10^6 cells/ml) containing serial dilutions of test compounds. […] Each drug ratio consisted of an array of 3-fold serial dilutions, and was performed in quadruplicate. The plates were incubated at 37° C./5% CO2. The MT-2 cells infected with HIV-1 LAI were incubated for 5 days. On day-five post-infection, 20 μl from each well was harvested and quantitated by a reverse transcriptase (RT) assay, or in samples involving non-nucleoside RT inhibitors, an MTS assay. The PM-1 cells infected with HIV-1 Bal and used for studying the combinations with CCR5 inhibitors were incubated for six days. On day-six post-infection, 20 μl from each well was harvested, 20- and 50-fold diluted and quantitated by p24 assay. Cytotoxicity assays were performed using uninfected cells, exposed to the same drug combinations, and incubated for six days. Cell viability was determined by an XTT assay. The CC50 values were calculated by using the exponential form of the median effect equation as mentioned below for calculation of EC50.
Analysis of Drug Combination Effects. For determination of CI values, drugs were diluted in a fixed ratio and multiple ratios were analyzed. The drug serial dilutions spanned a range of concentrations near the EC50 value of each compound, so that equivalent antiviral activities could be compared. Concentration-response curves were estimated for each individual drug and every combination using the median-effect equation. The equation was fit using a nonlinear regression routine (Proc Nlin) in PC SAS version 8.01 (SAS Institute Inc., SAS Version 8.01, Cary, N.C.: SAS Institute Inc., 1990).
In this equation, Fa stands for “fraction affected,” and represents the fraction of the viral load that has been inactivated. […] ED50 is drug concentration that is expected to reduce the amount of virus by 50%, and m is a parameter that reflects the slope of the concentration-response curve.
To assess antiviral effects of different drug combination treatments, combination indices (CIs) were calculated according to Chou and Rideout. The combination index was computed as CI=[D]1/[Dm]1+[D]2/[Dm]2
In this equation [Dm]1 and [Dm]2 are the concentrations of drugs that would individually produce a specific level of effect, while [D]1 and [D]2 are the concentrations of drugs in combination that would produce the same level of effect.
Theoretically, additivity is implied if the CI is equal to one, synergy if the CI is less than one, and antagonism if the CI is greater than one. […] At best, we can construct a range that contains the likely values for the CI, given the noise in the data. In this report, these ranges are reported in parentheses next to each point estimate of the CI. […] If the range fell entirely above 1.0, we would infer antagonistic behavior. If the range were to include 1.0, we would infer additivity.
In carrying out the combination experiments below, the EC50 for Compound 1 and each comparator compound was determined during the course of each study, and used in the subsequent data analysis.

[1] = combination with Compound 1, EC50 ratio 1:1 (Compound 1:comparator)
[2] = combination with Compound 1, EC50 ratio 1:1
[3] = combination with Compound 1, EC50 ratio 1:2.5
[4] = combination with Compound 1, EC50 ratio 2.5:1

SMILES | EC50 | Combination Indices at % HIV Inhibition (Confidence Interval) 50% [1] | Combination Indices at % HIV Inhibition (Confidence Interval) 75% [2] | Combination Indices at % HIV Inhibition (Confidence Interval) 90% [2] | Combination Indices at % HIV Inhibition (Confidence Interval) 50% [3] | Combination Indices at % HIV Inhibition (Confidence Interval) 75% [3] | Combination Indices at % HIV Inhibition (Confidence Interval) 90% [3] | Combination Indices at % HIV Inhibition (Confidence Interval) 50% [4] | Combination Indices at % HIV Inhibition (Confidence Interval) 75% [4] | Combination Indices at % HIV Inhibition (Confidence Interval) 90% [4] | Overall Result | Overall Result (listed as amprenavir) | Overall Result (listed as atazanavir)
c1cc(CN2CCCNCCNCCCNCC2)ccc1CN1CCCNCCNCCCNCC1 [AMD-3100] | 8 nM | 0.40 (0.34, 0.46) | 0.27 (0.21, 0.33) | 0.18 (0.12, 0.24) | 0.25 (0.21, 0.29) | 0.14 (0.11, 0.17) | 0.08 (0.05, 0.10) | 0.15 (0.11, 0.20) | 0.28 (0.18, 0.38) | 0.51 (0.20, 0.83) |  |  | 
Nc1nc(NC2CC2)c2ncn([C@H]3C=C[C@@H](CO)C3)c2n1 [Abacavir, abacavir] | 400 nM | 0.29 (0.16, 0.42) | 0.51 (0.20, 0.82) | 0.91 (0.03, 1.78) | 0.53 (0.36, 0.70) | 0.61 (0.33, 0.88) | 0.71 (0.21, 1.22) | 0.36 (0.27, 0.45) | 0.52 (0.34, 0.71) | 0.76 (0.34, 1.19) |  |  | 
CC(C)CN(C[C@@H](O)[C@H](Cc1ccccc1)NC(=O)O[C@H]1CCOC1)S(=O)(=O)c1ccc(N)cc1 [Amprenavir, amprenavir] | 21 nM | 0.89 (0.73, 1.06) | 0.93 (0.68, 1.17) | 0.96 (0.57, 1.36) | 1.30 (0.84, 1.76) | 1.08 (0.55, 1.62) | 0.90 (0.20, 1.60) | 0.41 (0.34, 0.48) | 0.32 (0.25, 0.40) | 0.25 (0.16, 0.35) | Additive- | additive to synergistic | 
COC(=O)N[C@H](C(=O)N[C@@H](Cc1ccccc1)[C@@H](O)CN(Cc1ccc(-c2ccccn2)cc1)NC(=O)[C@@H](NC(=O)OC)C(C)(C)C)C(C)(C)C [Atazanavir, atazanavir] | 1 nM | 1.04 (0.60, 1.49) | 0.58 (0.24, 0.93) | 0.33 (0.02, 0.64) | 0.23 (0.09, 0.38) | 0.35 (0.07, 0.63) | 0.52 (0.00, 1.24) | 0.88 (0.49, 1.27) | 0.67 (0.26, 1.09) | 0.52 (0.01, 1.04) | Additive- |  | additive to synergistic
COc1ncc(OC)c2c(C(=O)C(=O)N3CCN(C(=O)c4ccccc4)CC3)c[nH]c12 [Compound 1, 1-benzoyl-4-[2-(4,7-dimethoxy-1H-pyrrolo[2,3-c]pyridin-3-yl)-1,2-dioxoethyl]-piperazine] | 1 to 4 nM |  |  |  |  |  |  |  |  |  |  |  | 
CC[C@H](C)[C@H](NC(=O)[C@H](CCC(N)=O)NC(=O)[C@H](C)NC(=O)[C@H](CCC(N)=O)NC(=O)[C@H](CCC(=O)O)NC(=O)[C@H](CC(C)C)NC(=O)[C@H](CC(C)C)NC(=O)[C@H](C)NC(=O)[C@@H](NC(=O)[C@@H](NC(=O)[C@H](CCCCN)NC(=O)[C@H](CCC(N)=O)NC(=O)[C@H](CCC(=O)O)NC(=O)[C@H](Cc1c[nH]c2ccccc12)NC(=O)[C@H](CCC(=O)O)NC(=O)[C@H](CCC(N)=O)NC(=O)[C@H](Cc1c[nH]c2ccccc12)NC(C)=O)[C@@H](C)CC)[C@@H](C)O)C(=O)N[C@@H](CCC(N)=O)C(=O)N[C@@H](CCC(N)=O)C(=O)N[C@@H](CCC(=O)O)C(=O)N[C@@H](CCCCN)C(=O)N[C@@H](CC(N)=O)C(=O)N[C@@H](CCC(=O)O)C(=O)N[C@@H](Cc1ccc(O)cc1)C(=O)N[C@@H](CCC(=O)O)C(=O)N[C@@H](CC(C)C)C(=O)N[C@@H](CCC(N)=O)C(=O)N[C@@H](CCCCN)C(=O)N[C@@H](CC(C)C)C(=O)N[C@@H](CC(=O)O)C(=O)N[C@@H](CCCCN)C(=O)N[C@@H](Cc1c[nH]c2ccccc12)C(=O)N[C@@H](C)C(=O)N[C@@H](CO)C(=O)N[C@@H](CC(C)C)C(=O)N[C@@H](Cc1c[nH]c2ccccc12)C(=O)N[C@@H](CCC(=O)O)C(=O)N[C@@H](Cc1c[nH]c2ccccc12)C(=O)N[C@@H](Cc1ccccc1)C(N)=O [Compound T-1249] |  | 0.25 (0.20, 0.30) | 0.14 (0.10, 0.19) | 0.08 (0.04, 0.12) | 0.32 (0.28 0.35) | 0.17 (0.14, 0.19) | 0.09 (0.06, 0.11) | 0.19 (0.17, 0.22) | 0.14 (0.12, 0.16) | 0.10 (0.08, 0.13) |  |  | 
O=c1[nH]cnc2c1ncn2[C@H]1CC[C@@H](CO)O1 [Didanosine, didanosine] | 1800 nM | 1.29 (1.18, 1.40) | 0.69 (0.60, 0.78) | 0.37 (0.29, 0.44) | 0.53 (0.46, 0.60) | 0.32 (0.26, 0.38) | 0.19 (0.13, 0.25) | 0.95 (0.74, 1.17) | 0.69 (0.48, 0.90) | 0.50 (0.26, 0.74) |  |  | 
